Laboratory results from paper PMC10184130.
Read-outs that look alike come from different tables or passages of the source.

Legend:
[1] = molecular target: T1, mouse C1s (Mus musculus, UniProt Q8CG14); assay: Mouse C1s enzyme assay; type: biochemical; settings: supplementary csv
T1 construct: Recombinant mouse C1s (22–694 aa) fused with both the N-terminal IgG signal peptide; IgG signal peptide (N); His tag (C); made in house; host or cells: Expi293 cells
T1 sequence (Q8CG14 438-688 limits assumed): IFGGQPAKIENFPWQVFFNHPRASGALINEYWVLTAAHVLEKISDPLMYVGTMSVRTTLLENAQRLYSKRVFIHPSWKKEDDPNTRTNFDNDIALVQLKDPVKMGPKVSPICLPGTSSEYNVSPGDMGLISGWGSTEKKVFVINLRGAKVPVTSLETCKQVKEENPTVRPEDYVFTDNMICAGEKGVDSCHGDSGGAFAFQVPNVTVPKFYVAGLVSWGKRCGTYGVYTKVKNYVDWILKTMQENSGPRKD
T1 sequence (Q8CG14 16-437 partner limits assumed): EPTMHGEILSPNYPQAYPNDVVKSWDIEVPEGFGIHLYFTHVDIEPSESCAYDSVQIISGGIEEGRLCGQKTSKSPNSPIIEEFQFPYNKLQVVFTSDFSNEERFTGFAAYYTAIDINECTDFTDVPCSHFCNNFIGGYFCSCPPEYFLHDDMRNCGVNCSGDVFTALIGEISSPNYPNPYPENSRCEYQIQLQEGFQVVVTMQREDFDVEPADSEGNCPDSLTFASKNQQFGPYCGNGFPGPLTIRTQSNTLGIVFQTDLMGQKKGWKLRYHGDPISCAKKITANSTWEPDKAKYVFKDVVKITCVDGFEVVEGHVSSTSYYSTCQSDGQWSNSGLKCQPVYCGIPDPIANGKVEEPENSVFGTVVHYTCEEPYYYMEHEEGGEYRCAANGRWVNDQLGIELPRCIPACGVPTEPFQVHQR
Source text: Recombinant mouse C1s (22–694 aa) fused with both the N-terminal IgG signal peptide and the C-terminal His tag was expressed in Expi293 cells and purified. Mouse C1s was activated by recombinant human C1r prior to use. Mouse C1s assay conditions were the same as for human C1s, except that the enzyme solution concentration was 30 nmol/L.

[2] = molecular target: T2, human thrombin (Homo sapiens, UniProt P00734); assay: Human thrombin enzyme assay; type: biochemical; settings: supplementary csv
T2 construct: purchased AnaSpec
Method: The human thrombin enzyme activity was determined by a SensoLyte 520 thrombin activity assay kit (AnaSpec, CA, USA). Purified human thrombin and the substrate were diluted in the assay buffer 1. After 20 nL of compound solution was added to a 384-well black plate, 3 μL of the 2 μmol/L 5-FAM/QXLTM 520 thrombin substrate was added to the plate. Then, 8 nmol/L human thrombin was added to the plate and incubated at room temperature for 60 min. The fluorescence at an excitation wavelength of 485 nm and an emission wavelength of 535 nm was detected using an EnVision multilabel plate reader.

[3] = molecular target: T3, human factor D (Homo sapiens, UniProt P00746); assay: Human factor D enzyme assay; type: biochemical; settings: supplementary csv
T3 construct: Recombinant human factor D (26–253 aa) fused with both the N-terminal IgG signal peptide; IgG signal peptide (N); His tag (C); made in house; host or cells: Expi293 cells
T3 sequence (P00746 26-253): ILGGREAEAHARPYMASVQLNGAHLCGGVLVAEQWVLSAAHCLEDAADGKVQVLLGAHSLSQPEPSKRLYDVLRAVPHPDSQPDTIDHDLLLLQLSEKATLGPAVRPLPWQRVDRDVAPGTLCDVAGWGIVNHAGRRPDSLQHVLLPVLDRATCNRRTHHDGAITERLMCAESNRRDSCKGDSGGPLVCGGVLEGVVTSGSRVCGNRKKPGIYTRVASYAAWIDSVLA
Source text: Recombinant human factor D (26–253 aa) fused with both the N-terminal IgG signal peptide and the C-terminal His tag was expressed in Expi293 cells and purified. The human factor D assay condition was the same as for human MASP2, except that the enzyme solution concentration was 20 nmol/L and the substrate solution contained a 400 μmol/L Z-Lys-SBzl peptide and 50 μmol/L BES-Thio.

[4] = Pharmacokinetics analysis in mice (oral; plasma and brain); type: in vivo; settings: for AUC0-24h / Cmax / MRT: plasma; for concentration at 2 h / Kp at 2 h / concentration at 24 h: male, C57BL/6J, mouse, brain; for Kp at 2 h: read-out: Brain to plasma ratio 2 h
Method: Male C57BL/6J mice were purchased from The Jackson Laboratory Japan, Inc. (Kanagawa, Japan). […] The compound was dissolved in 10% DMSO/10% Cremophor EL/20% PEG400/60% 0.1 mol/L citric acid solution and administered orally at doses of 10, 30, or 100 mg/kg. Blood samples were collected into heparinized tubes at the designated time points (0.5, 1, 2, 4, 8, and 24 h postdosing), and brains were also collected at 2 and 24 h postdosing. Plasma was separated from the blood samples by centrifugation. The plasma and brain concentrations were quantified with high-performance liquid chromatography–tandem mass spectrometry. The lower limit of quantitation was 1 ng/mL for plasma and 5 ng/mL for brains.

[5] = molecular target: T4, human MASP2 (Homo sapiens, UniProt O00187); assay: Human MASP2 enzyme assay; type: biochemical; settings: supplementary csv
T4 construct: Recombinant human MASP2 (298–686 aa) fused with both the N-terminal IgG signal peptide; IgG signal peptide (N); His tag (C); made in house; host or cells: Expi293 cells
T4 sequence (O00187 298-686): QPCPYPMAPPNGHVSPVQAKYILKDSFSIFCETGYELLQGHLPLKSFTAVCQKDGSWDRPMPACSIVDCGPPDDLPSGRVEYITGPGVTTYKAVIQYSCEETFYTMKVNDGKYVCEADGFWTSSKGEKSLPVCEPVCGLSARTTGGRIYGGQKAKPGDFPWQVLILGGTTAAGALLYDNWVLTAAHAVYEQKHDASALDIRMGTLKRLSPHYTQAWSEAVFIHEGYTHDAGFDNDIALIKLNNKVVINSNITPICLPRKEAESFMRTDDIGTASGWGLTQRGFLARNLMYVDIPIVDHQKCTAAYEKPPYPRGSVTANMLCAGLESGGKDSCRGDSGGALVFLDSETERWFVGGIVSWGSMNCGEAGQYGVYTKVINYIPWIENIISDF
Method: Recombinant human MASP2 (298–686 aa) fused with both the N-terminal IgG signal peptide and the C-terminal His tag was expressed in Expi293 cells and purified. The assay was performed in a 384-well black plate in a total volume of 6 μL of the assay buffer 1. After 20 nL of compound solution was added to the plate, 3 μL of substrate solution containing a 20 μmol/L Z-Gly-Arg-SBzl peptide and 20 μmol/L BES-Thio (FUJIFILM Wako, Osaka, Japan) was added to the plate. Then, 0.6 nmol/L human MASP2 was added to the plate and incubated at room temperature for 60 min. The fluorescence at an excitation wavelength of 485 nm and an emission wavelength of 535 nm was detected using an EnVision multilabel plate reader.

[6] = molecular target: T5, MDR1 (P-gp) (Homo sapiens, UniProt P08183); assay: Membrane permeability with human MDR-1 expressing cells; type: in vitro ADME; settings: human; MDR1-expressing cells, 1 μmol/L, 2 h
T5 construct: expressed in transfected cells
Method: (§1) The transcellular transport study was performed as reported previously.[31] In brief, the cells were grown in an HTS Transwell 96-well permeable support (pore size of 0.4 μm, 0.143 cm^2 surface area) with a polyethylene terephthalate membrane (Corning Life Sciences, Lowell, MA, USA) at a density of 1.125 × 10^5 cells/well. The cells were preincubated with M199 at 37 °C for 30 min. Subsequently, transcellular transport was initiated by the addition of M199 to apical compartments containing 1 μmol/L test compounds and terminated by the removal of each assay plate after 2 h. The aliquots in the opposite compartments were subjected to measurement for compound concentration by LC–MS/MS. Permeability was calculated using the permeated compound concentration.

[7] = molecular target: T6, Human Multidrug Resistance 1 (MDR-1) Expressing Cells (Homo sapiens, UniProt P08183); assay: as above; type: in vitro ADME; settings: supplementary csv
T6 construct: expressed in transfected cells
Method: as §1

- IC50 [1]: 0.061 µM
- IC50 [2]: > 30 µM
- IC50 [3]: > 30 µM
- AUC0-24h ([4]; 10 mg/kg): 6017.8 ± 390.4 ng·h/mL
- Cmax ([4]; 10 mg/kg): 1032.5 ± 173.0 ng/mL
- MRT ([4]; 10 mg/kg): 4.31 ± 0.23 h
- AUC0-24h ([4]; 30 mg/kg): 21928.6 ± 1428.2 ng·h/mL
- Cmax ([4]; 30 mg/kg): 2583.3 ± 267.1 ng/mL
- MRT ([4]; 30 mg/kg): 5.02 ± 0.18 h
- AUC0-24h ([4]; 100 mg/kg): 139341.0 ± 36760.1 ng·h/mL
- Cmax ([4]; 100 mg/kg): 8895.5 ± 1516.8 ng/mL
- MRT ([4]; 100 mg/kg): 7.66 ± 0.99 h
- concentration at 2 h ([4]; 10 mg/kg): 560 ± 106 ng/g
- Kp at 2 h ([4]; 10 mg/kg): 0.7
- concentration at 24 h ([4]; 10 mg/kg): 5.2 ± 0.2 ng/g
- concentration at 2 h ([4]; 30 mg/kg): 3830 ± 935 ng/g
- Kp at 2 h ([4]; 30 mg/kg): 1.7
- concentration at 24 h ([4]; 30 mg/kg): 8.9 ± 3.8 ng/g
- concentration at 2 h ([4]; 100 mg/kg): 33600 ± 19300 ng/g
- Kp at 2 h ([4]; 100 mg/kg): 6
- concentration at 24 h ([4]; 100 mg/kg): 1860 ± 2400 ng/g
- IC50 [5]: > 30 µM
- Papp A→B at 2 h, 1 μmol/L [6]: 1.4 ×10⁻⁶ cm/s
- MDR1 (A to B) [7]: 14 nm/s
Structure (SMILES): Cc1cc([C@H]2CN(c3cc(F)c4c(N)nncc4c3)CCN2c2cccc(F)c2)no1 [Compound (R)-8, 8-Fluoro-6-[(3R)-4-(3-fluorophenyl)-3-(5-methyl-1,2-oxazol-3-yl)piperazin-1-yl]phthalazin-1-amine]
